Legend:
[1] = refractive index (Na D-line) (dimensionless); xn = mol fraction of the nth substance listed; details: 101 kPa, Liquid
[2] = relative permittivity at zero frequency (dimensionless); xn = mol fraction of the nth substance listed; details: 101 kPa, Liquid, Dekameter

O=C1CCCO1 [γ-butyrolactone] + CCCCO
Details | refractive index, [1] | relative permittivity at zero frequency, [2]
293.15 K, x1 = 0.1098 | – | 20.68
293.15 K, x1 = 0.2154 | – | 22.37
293.15 K, x1 = 0.3009 | – | 23.98
293.15 K, x1 = 0.4127 | – | 26.17
293.15 K, x1 = 0.5088 | – | 28.44
293.15 K, x1 = 0.6124 | – | 31.29
293.15 K, x1 = 0.7001 | – | 33.79
293.15 K, x1 = 0.8133 | – | 37.12
293.15 K, x1 = 0.9078 | 1.4332 | 40.02
298.15 K, x1 = 0.1098 | 1.4014 | 19.61
298.15 K, x1 = 0.2154 | 1.4051 | 21.23
298.15 K, x1 = 0.3009 | 1.4083 | 22.55
298.15 K, x1 = 0.4127 | 1.4124 | 24.92
298.15 K, x1 = 0.5088 | 1.416 | 27.23
298.15 K, x1 = 0.6124 | 1.42 | 29.79
298.15 K, x1 = 0.7001 | 1.4234 | 32.21
298.15 K, x1 = 0.8133 | 1.4279 | 36.01
298.15 K, x1 = 0.9078 | 1.4316 | 39.13
303.15 K, x1 = 0.1098 | 1.4 | 18.57
303.15 K, x1 = 0.2154 | 1.4038 | 19.99
303.15 K, x1 = 0.3009 | 1.407 | 21.61
303.15 K, x1 = 0.4127 | 1.4111 | 23.88
303.15 K, x1 = 0.5088 | 1.4147 | 26.16
303.15 K, x1 = 0.6124 | 1.4186 | 28.82
303.15 K, x1 = 0.7001 | 1.4219 | 31.34
303.15 K, x1 = 0.8133 | 1.4263 | 35.03
303.15 K, x1 = 0.9078 | 1.43 | 38.46
313.15 K, x1 = 0.1098 | 1.3973 | 16.65
313.15 K, x1 = 0.2154 | 1.4013 | 18.16
313.15 K, x1 = 0.3009 | 1.4044 | 19.99
313.15 K, x1 = 0.4127 | 1.4085 | 22.01
313.15 K, x1 = 0.5088 | 1.4121 | 24.43
313.15 K, x1 = 0.6124 | 1.4158 | 26.76
313.15 K, x1 = 0.7001 | 1.4192 | 29.25
313.15 K, x1 = 0.8133 | 1.4232 | 33.05
313.15 K, x1 = 0.9078 | 1.4267 | 36.56

Reference: the NIST ThermoML archive (doi:10.1021/je900503p)
